Data reported in article PMC3292874 (Bioconjugate Chemistry, 2011).

Molecular target: PC-PLC (phosphatidylcholine-specific phospholipase C) (Bacillus cereus, UniProt P09598)
Assay: fluorescence of dequenched Pyro-PtdEtn-BHQ hydrolysis, initial rate
Assay type: biochemical

PC-PLC (phosphatidylcholine-specific phospholipase C), sequence (P09598 39-283 limits assumed): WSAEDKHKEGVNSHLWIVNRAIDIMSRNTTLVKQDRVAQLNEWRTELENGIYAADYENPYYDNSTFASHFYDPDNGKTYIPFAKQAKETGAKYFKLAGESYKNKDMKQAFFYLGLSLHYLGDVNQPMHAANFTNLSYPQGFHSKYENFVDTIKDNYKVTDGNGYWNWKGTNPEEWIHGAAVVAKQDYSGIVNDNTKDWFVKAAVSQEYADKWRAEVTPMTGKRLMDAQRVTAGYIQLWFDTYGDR

`S=C(S)OC1CC2CC1C1CCCC21` (stereo not shown) [D609] was tested. Which IC50 did it give?
Its IC50 is 34 ± 8 µM.
